Molecular target: T1, AKR1C3 (Homo sapiens, UniProt P42330)
T1 sequence (P42330 1-323): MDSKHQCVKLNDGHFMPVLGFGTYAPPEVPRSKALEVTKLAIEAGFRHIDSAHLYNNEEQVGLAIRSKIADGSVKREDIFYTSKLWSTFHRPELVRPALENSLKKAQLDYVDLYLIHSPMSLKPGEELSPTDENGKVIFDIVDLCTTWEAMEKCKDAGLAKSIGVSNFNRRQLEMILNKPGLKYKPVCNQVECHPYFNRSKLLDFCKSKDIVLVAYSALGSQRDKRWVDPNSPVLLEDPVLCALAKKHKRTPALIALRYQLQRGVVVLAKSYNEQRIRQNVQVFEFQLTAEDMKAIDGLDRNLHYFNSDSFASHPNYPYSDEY
Test: S-tetralol oxidation assay, recombinant AKR1C3, absorbance at […] nm
Type: biochemical

Question: How did the IC50 turn out when `NS(=O)(=O)c1ccc(-n2nc(CCCNC(=O)Nc3ccc(C(F)(F)F)cc3)cc2-c2ccccc2)cc1` [PTUPB, 4-(5-phenyl-3-{3-[3-(4-trifluoromethyl-phenyl)-ureido]-propyl}-pyrazol-1-yl)-benzenesulfonamide] was run?
Answer: ~0.065 µM

— publication PMC9975039 (Oncogene, 2023)
